# Measurements reported in patent US20200345795A1, “MODULATION OF INTESTINAL MICROBIOTA IN PRE-DIABETES AND TYPE 2 DIABETES” (Medlab IP Pty Ltd, priority 2017, published 2020).
# Test system: intestinal microbiota
# Assay: Faecal microbial profile (16S rRNA gene sequencing, MALDI-TOF) in randomised placebo-controlled trial
# Assay type: in vivo, human
# Description: The study described herein was a pilot, single site, randomised, double blind, placebo-controlled trial. Ethical approval was granted by the Sydney Local Health District Human Research Ethics Committee, RPA Hospital, Sydney, Australia. The study was carried out according to the Declaration of Helsinki, the National Health and Medical Research Council National Statement on Ethical Conduct in Research Involving Humans and the Notes for Guidance on Good Clinical Practice as adopted by the Australian Therapeutic Goods Administration and the International Conference on Harmonisation Good Clinical Practise guidelines. Written informed consent was obtained from participants before enrolment.
# The active product administered was a capsule containing 5×10^10 colony forming units (cfu) of a multi-strain probiotic combination of Lactobacillus plantarum, Lactobacillus bulgaricus, Lactobacillus gasseri, Bifidobacterum breve, Bifidobacterium animalis subsp. lactis, Bifidobacterium bifidum, Streptococcus thermophilus and Saccharomyces boulardii. The placebo was a capsule containing 50 mg maltodextrin. The probiotic and placebo capsules were opaque white in colour and looked and smelled identical. […]
# Faecal bacterial profiles were determined using the Ion S5 next-generation sequencing platform (Thermo Fisher) and faecal yeasts were identified by matrix-assisted laser desorption ionization time-of-flight mass spectrometry (MALDI-TOF). […] After extraction, DNA was quantified in a Qubit 2.0 Fluorometer (Invitrogen, Thermo Fisher). […] PCR products were quantified and their quality was evaluated by electrophoretic fractionation in 2% agarose gels (E-Gel, EX Agarose Gel, Thermo Fisher). […]
smiles,measurement,setting,value
"CN(C)C(=N)NC(=N)N [metformin, N,N-dimethylimidodicarbonimidic diamide]",intestinal microbial community (beta diversity) at species and genera level,"participants taking vs not taking metformin, p=0.002 (species) and 0.036 (genera)",differed from those not taking metformin
same,effect on intestinal microbiota at the family level,"participants taking vs not taking metformin, p=0.56",no effect
same,relative abundance of Akkermansia municiphila,"those taking metformin in the placebo group, in contrast to the probiotic group",lower relative abundance
